Source: patent US7714014B2, “Targeting GLI proteins in human cancer by small molecules” (The Regents of the University of California, priority 2005, dated 2010)
Entries after “also recorded” stand apart in the source; their conditions may differ.

How the values were obtained:
[1] = test system: Primary cultured NSCLC cells; test: Apoptosis analysis (Annexin V FITC, flow cytometry); type: cell-based, human; details: 3 days
Description: Fresh cancer tissue and adjacent normal tissue from patients undergoing curative primary resection of their tumors were collected at the time of surgery (IRB approval H8714-15319-040), and immediately snap-frozen in liquid nitrogen. These tissue samples were kept at −170° C. in a liquid nitrogen freezer until further use. Primary tissue cultures were prepared as follows: Fresh cancer tissue was obtained with consent from patients undergoing resection, cut into small pieces (1-2 mm in diameter), and then digested with Collagenase A (Roche Applied Science, Indianapolis, Ind.) at room temperature for 2 hours according to manufacture's protocol. Single cells from the digestion were spun down and the cell pellets were washed twice using RPMI 1640 supplemented with 10% fetal bovine serum, penicillin (100 IU/ml) and streptomycin (100 μg/ml). Then, the cells were resuspended in the same medium and cultured in 6-well plates at 37° C. in a humid incubator with 5% CO2 until they were ready for further treatments.
Apoptosis was analyzed by using an Annexin V FITC Apoptosis Detection Kit (Biosource, Camarillo, Calif.), according to the manufacturer's protocol. After treatment with different small molecule compounds at various concentrations for about 3 days, cells were harvested by trypsinization, stained and immediately analyzed by flow cytometry (FACScan; Decton Dickinson, Franklin Lake, N.J.). Early apoptotic cells with exposed phosphatidylserine but intact cell membranes will bind to Annexin V-FITC, but not propidium iodide (PI). Cells in necrotic or late apoptotic stages will be labeled with both Annexin V-FITC and PI. “% apoptotic cells” or “% apoptosis” refers to the combined early and late apoptotic cells.
Flow cytometry was also used to examine apoptosis induced by molecule compounds of the invention. in primary cultured NSCLC cells freshly made from tissue samples. […] For example, app.

[2] = test system: colon cancer cell lines LoVo and CaCO2; test: Cell survival assay (crystal violet); type: cell-based, human; details: for cell killing: data not shown
Description: (§1) Typically, the small molecule compounds of the present invention were dissolved in DMSO at a concentration of 30 mM. The small molecule compounds were then tested under cell culture conditions at different concentrations ranging from 0, 10, 30, 50, to 100 uM. To determine cell survival after treatment, the cells were incubated with the small molecule compounds in 6-well plates for about 3 days. After removal of the cell culture medium, 1-ml of 0.5% crystal violet solution (prepared in 20% ethanol and 20% methanol) was added to stain the cells for 5 min. Then the crystal violet solution was rinsed clean with tap water. Cell survival was estimated based on the density of crystal stained plates.
Both, small molecule compounds FN1-5 and FN1-8 induced apoptosis in CaCO2 (Tables 2 and 3).

[3] = test system: mesothelioma cell lines H290 and 211H; test: Cell survival assay (crystal violet); type: cell-based, human; details: 30 μM, 3 days
Description: as §1
(§2) Cell killing was also tested using mesothelioma cell lines H290, 211H, MS1 and REN and different doses of the small molecule compounds FN1-5 and FN1-8. Cells were plated in 6-well plates and incubated with 1, 10, and 30 μM of each compound for 3 days, as described herein. […] (data not shown).

[4] = test system: mesothelioma cell lines MS-1 and REN; test: Cell survival assay (crystal violet); type: cell-based, human; details: 1, 10, and 30 μM, 3 days
Description: as §1, §2

[5] = test system: normal human muscle cells; test: Cell survival assay (crystal violet); type: cell-based; details: 1, 10, 30, and 50 μM, 3 days
Description: as §1
The cell killing effect of small molecule compounds FN1-8, FN1-7, and FN1-5 at different doses was examined in normal human muscle cells. […] Normal muscle cells were plated in 6-well plates and incubated with 1, 10, 30, and 50 μM of each compound for 3 days, in the same manner as described herein for similar other experiments. […] Both FN1-5 and FN1-8 seem to be specific in killing cancer cells.

[6] = test system: Tcf-mediated gene transcription (canonical Wnt signaling) in colon cancer cell line SW480; test: TOPFLASH (TOP/FOP) assay; type: cell-based, human
Description: Cells were plated in 12-well plates. The TOPFLASH or FOPFLASH reporter plasmid (Upstate; Charlottesville, Va.) was transfected transiently into cells as described above. Tcf-mediated gene transcription was determined by the ratio of pTOPFLASH:pFOPFLASH luciferase activity, each was normalized to luciferase activities of the pRL-TK reporter (co-transfected internal control). All experiments were performed in triplicate, and repeated three times.
Regulation of TOP/FOP activity by the same compounds as described above was also analyzed in the colon cancer cell line SW480.

[7] = test system: human SOCS3 promoter in NSCLC cell line A549; test: SOCS3 promoter-luciferase reporter assay; type: cell-based; details: A549, 30 μM, 18-24 hours
Description: One day before transfection, cells (1×10^5) were plated in 12-well plates with growth medium without antibiotics. When cells reached 80-90% of confluence they were co-transfected using 0.5 μg of each promoter construct in pGL3Basic vector and 0.025 μg pRL-TK Vector (Promega; Madison, Wis.) containing Renilla Luciferase as an internal control for the transformation efficiency. Lipofectamine 2000™ (Invitrogen Life Technologies) was used to mediate transfection for about 6 hours. Then the medium was replaced with fresh medium containing various small molecule compounds at a concentration of 30 μM, and the resulting cells were cultured for an additional 18-24 hours and subjected to luciferase assay. Briefly, cells were lysed in a lysis buffer and Firefly and Renilla Luciferase activities in cells of each well, were measured using Dual-Luciferase Assay System (Promega) and an illuminometer. The measured luciferase activities were normalized to pRL-TK Vector activity and were given relative to the basal activity of empty pGL3-Basic Vector, which was set to unity. The data shown represent mean values (±S.D.). All measurements were performed in triplicate and repeated in at least three independent experiments. The human Wnt-2 promoter-luciferase construct, the human SOCS3 promoter-Luciferase construct and the human Gremlin promoter-luciferase construct were cloned and characterized in the laboratory of Dr. Jablons at the University of California, San Francisco (San Francisco, Calif.; He et al., Biochem Biophy Res Comm, 2003; and unpublished data). The 6GLI-TKO-luciferase construct (containing 6 repeats of consensus GLI DNA binding sequence) was kindly provided by Dr. Matthias Hebrok's laboratory at the University of California, San Francisco (San Francisco, Calif.).
As a third specificity test for the small molecule compounds of the present invention, the ability of these compounds to regulate the expression of genes that are not down-stream targets of the Gli activation was analyzed. SOCS3, an inhibitor and down-stream target gene of JAK/STAT pathway was chosen for this experiment. Expression of SOCS3 is not under control of Gli and/or Wnt activation. Furthermore, no GLI and TCF binding sites were found in the human SOCS3 promoter cloned in the laboratory of Dr. Jablons (University of California, San Francisco; data not shown). Thus, SOCS3 promoter-luciferase reporter activity was measured after the treatment of the NSCLC cell line A549 with small molecule compounds FN1-5, FN1-7, FN1-8, and FN1-9U.

Row | SMILES | % of apoptotic cells ([1]; 10 μM) [%] | % of apoptotic cells ([1]; 30 μM) [%] | % of apoptotic cells ([1]; 50 μM) [%] | cell killing potency compared with FN1-5 [2] | cell killing [2] | cell killing [3] | cell killing [4] | cell killing effect in normal cells [5] | reduction of TOP/FOP activity [6] | SOCS3 promoter activity [7] | TOP/FOP activity [6]
1 | O=C(NCCc1ccc(O)cc1)C1C(c2ccccc2)=NN(c2ccccc2)C1c1ccccc1 (stereo not drawn) [FN1-8, N-(2-(4-Hydroxyphenyl)ethyl)-1,3,5-triphenyl-4,5-dihydro-pyrazole-4-carboxyamide] | 9.8 | 13.1 | 58.0 | more potent than FN1-5 | dramatic cell killing | Dramatic cell killing | no noticeable effect | No noticeable cell killing effect | about 32% | inactive; also recorded: do not regulate SOCS3 promoter activity | –
2 | O=C(NCCCCCO)C1C(c2ccccc2)=NN(c2ccccc2)C1c1ccccc1 (stereo not drawn) [FN1-5, N-(5-Hydroxypentyl)-1,3,5-triphenyl-4,5-dihydro-pyrazole-4-carboxyamide] | – | 11.2 | 19.8 | – | dramatic cell killing | Dramatic cell killing | no noticeable effect | No noticeable cell killing effect | – | inactive; also recorded: do not regulate SOCS3 promoter activity | lesser effect
